Data as given in PubChem BioAssay AID2060603 (Molecular Pharmacology Branch, DTP, NCI, 2025).

System: 422866-222-R5-J1-PDC spheroid viability
Test: Anticancer human tumor 422866-222-R5-J1-PDC patient-derived pancreatic adenocarcinoma cell line growth inhibition [CLK]
Details: spheroids with HUVEC and MSC; for IC50: curve of first compound; for viability, T/C: stronger effect = lower value
Excerpt: A high-throughput screen of multi-cell type tumor spheroids was designed to identify active combinations of […] and targeted small molecules. Complex spheroids include a stromal component modeled by human endothelial cells (HUVEC) and fibroblasts modeled by human mesenchymal stem cells (MSCs). The concentration ranges selected for each drug and investigational agent were based upon clinically achievable concentrations if the clinical Cmax of the agent was known.
Compounds. The drugs and investigational agents: cirtuvivint (SM08502; NSC835563), CC-671 (NSC850746), vemurafenib (NSC761431), tapotoclax (NSC804041), sotorasib (NSC818433), adagrasib (NSC831453), MRTX-1133 (NSC836407), BAY2416964 (NSC825713), copanlisib (NSC816437), inavolisib (NSC800729), abemaciclib (NSC768073), osimertinib (NSC779217), entinostat (NSC756642), eltanexor (KPT-8602, NSC794443), venetoclax (NSC766270), ceralasertib (NSC777638), bortezomib (NSC756655), olaparib (NSC753686), talazoparib (NSC767125), alisertib (NSC759677), peposertib (NSC802822), gemcitabine (NSC613327), 5-fluorouracil (NSC19893), SN-38 (NSC673596), oxaliplatin (NSC266046), paclitaxel (NSC125973), and doxorubicin (NSC123127), were obtained from the National Cancer Institute (NCI) Developmental Therapeutics Program Chemical Repository. The FDA-approved anticancer drug set is available from the Developmental Therapeutics Program at https://dtp.cancer.gov/organization/dscb/obtaining/available plates.htm. […] The stock solutions were prepared in dimethyl sulfoxide (DMSO, Sigma-Aldrich, St. Louis, MO, cat. D2650), except for the platinum complexes which were prepared in saline (Quality Biological, Gaithersburg, MD, cat. 114-055-101), at 800-fold the tested concentration and stored at -70 degrees C prior to their use. All drugs and investigational agents were tested over a range starting from a high concentration at or near the clinical Cmax and decreasing in half-log increments. If the clinical Cmax for an agent had not been determined, the highest concentration tested was 10 microM.
Cell Culture. All cells were maintained in an incubator at 37 degrees C and 5% CO2 with 95% humidity. The PDC lines were cultured according to standard operating procedures established by the NCI PDMR. Briefly, all PDCs were thawed and cultured in Matrigel-coated flasks prepared with a working solution of 1X Ham's F-12 nutrient mix, without supplementation (Invitrogen, Waltham, MA, cat. 11765054), 100 U/mL penicillin-streptomycin (Invitrogen, cat. 15140122), and 2.5% Matrigel (Corning Inc., Corning, NY, cat. 354248) for the first three passages. The 947758-054-R-J2-PDC line was cultured in 6B/Colon 1A media, which includes advanced DMEM/F-12 (Thermo Fisher Scientific, cat. 12634028), 10 mM HEPES (Thermo Fisher Scientific, cat. 15630080), 1X GlutaMAX supplement (Thermo Fisher Scientific, cat. 35050061), 0.1 mg/mL primocin (InvivoGen, cat. ant-pm-2), 10% defined fetal bovine serum, heat inactivated (HyClone Laboratories Inc., cat. SH30070.03HI), 1.25 mM N-Acetyl-L-cysteine (Sigma-Aldrich, cat. A9165), 10 mM nicotinamide (Sigma-Aldrich, cat. N0636), 1X B-27 supplement (Thermo Fisher Scientific, cat. 17504044), 1X N-2 supplement (Thermo Fisher Scientific, cat. 17502048), and 10 microM Y-27632 dihydrochloride (Tocris Bioscience, cat. 1254). The 876862-298-R-J1-PDC was cultured in 6E media, which includes all 6B/Colon 1A media components plus 50% L-WRN conditioned media (ATCC, cat. CRL-3276), 50 ng/mL recombinant human EGF recombinant protein (hEGF; Thermo Fisher Scientific, cat. PHG0311), 10 ng/mL recombinant human fibroblast growth factor 10 (hGFG-10; PeproTech, cat. 100-26), 1 ng/mL recombinant human fibroblast growth factor 2 (hFGF-2; PeproTech, cat. 100-18B), and 1 µM prostaglandin E2 (PGE2; Tocris, cat. 2296). The 227483-062-R1-J1-PDC line was cultured in Panc media, containing all 6E components except hFGF-2, with the addition of 500 nM SB-431542 (Selleckchem, cat. S1067) and 10 nM gastrin (Tocris, cat. 3006). […]
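Note: spheroids exposed to agents for seven days before readout.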

## COc1ccc([C@@H](O)c2cc(-c3ncnc4cc(N5CCOCC5)ccc34)c(F)cc2Cl)nn1 + CN1CCN(c2cc(C(=O)Nc3cc4cc(-c5cnn(C)c5)ccc4cn3)ccn2)CC1
Second compound 0.0316 µM
  IC50: 5.48 µM
Second compound 0.1 µM
  IC50: 5.04 µM
Second compound 0.316 µM
  IC50: 7.11 µM
Second compound 1 µM
  IC50: < 0.0316 µM
Second compound 3.16 µM
  IC50: < 0.0316 µM
Second compound 10 µM
  IC50: < 0.0316 µM
Second compound 0.0316 µM, first compound 0.0316 µM
  viability, T/C: 116%
Second compound 0.0316 µM, first compound 0.1 µM
  viability, T/C: 96.8%
Second compound 0.0316 µM, first compound 0.316 µM
  viability, T/C: 88.8%
Second compound 0.0316 µM, first compound 1 µM
  viability, T/C: 77.4%
Second compound 0.0316 µM, first compound 3.16 µM
  viability, T/C: 59%
Second compound 0.0316 µM, first compound 10 µM
  viability, T/C: 39.5%
Second compound 0.1 µM, first compound 0.0316 µM
  viability, T/C: 114%
Second compound 0.1 µM, first compound 0.1 µM
  viability, T/C: 98.8%
Second compound 0.1 µM, first compound 0.316 µM
  viability, T/C: 94.3%
Second compound 0.1 µM, first compound 1 µM
  viability, T/C: 73.6%
Second compound 0.1 µM, first compound 3.16 µM
  viability, T/C: 56%
Second compound 0.1 µM, first compound 10 µM
  viability, T/C: 40.4%
Second compound 0.316 µM, first compound 0.0316 µM
  viability, T/C: 98.7%
Second compound 0.316 µM, first compound 0.1 µM
  viability, T/C: 87.8%
Second compound 0.316 µM, first compound 0.316 µM
  viability, T/C: 81.4%
Second compound 0.316 µM, first compound 1 µM
  viability, T/C: 77.7%
Second compound 0.316 µM, first compound 3.16 µM
  viability, T/C: 52.9%
Second compound 0.316 µM, first compound 10 µM
  viability, T/C: 48%
Second compound 1 µM, first compound 0.0316 µM
  viability, T/C: 18.2%
Second compound 1 µM, first compound 0.1 µM
  viability, T/C: 18.5%
Second compound 1 µM, first compound 0.316 µM
  viability, T/C: 22.9%
Second compound 1 µM, first compound 1 µM
  viability, T/C: 16.7%
Second compound 1 µM, first compound 3.16 µM
  viability, T/C: 20.9%
Second compound 1 µM, first compound 10 µM
  viability, T/C: 19.1%
Second compound 3.16 µM, first compound 0.0316 µM
  viability, T/C: 7.87%
Second compound 3.16 µM, first compound 0.1 µM
  viability, T/C: 8.87%
Second compound 3.16 µM, first compound 0.316 µM
  viability, T/C: 9.25%
Second compound 3.16 µM, first compound 1 µM
  viability, T/C: 8.71%
Second compound 3.16 µM, first compound 3.16 µM
  viability, T/C: 11.4%
Second compound 3.16 µM, first compound 10 µM
  viability, T/C: 14.6%
Second compound 10 µM, first compound 0.0316 µM
  viability, T/C: 1.27%
Second compound 10 µM, first compound 0.1 µM
  viability, T/C: 1.38%
Second compound 10 µM, first compound 0.316 µM
  viability, T/C: 1.7%
Second compound 10 µM, first compound 1 µM
  viability, T/C: 2.13%
Second compound 10 µM, first compound 3.16 µM
  viability, T/C: 3.04%
Second compound 10 µM, first compound 10 µM
  viability, T/C: 2.69%
